Patent US6664241B2, “Water-soluble amide derivatives of polyene macrolides and preparation and uses thereof” (Micrologix Biotech Inc., priority 2000, dated 2003)
Converted amounts (≈) assume the structure as drawn.

Experiments:
C. albicans = experiment: Minimum Inhibitory Concentrations (MICs) against C. albicans, NCCLS M27-A broth dilution; assay type: cell-based; conditions: Candida albicans, read-out: MIC
Method: For each compound synthesized, Minimum Inhibitory Concentrations (MICs) against C. albicans were determined as described in Reference Method for Broth Dilution Antifungal Susceptibility Testing of Yeasts, Approved Standard, NCCLS document M27-A (ISBN 1-56238-328-0), NCCLS, 940 West Valley Road, Suite 1400, Wayne, Pa. 19087, 1997.

[1] = Maximum non-lethal dose (NLD), single intravenous dose in mice; assay type: in vivo, Swiss-Webster male mice; conditions: test compounds as aspartate salts in 5% mannitol, AmB as FUNGIZONE
Method: A variety of the compounds synthesized as described in Section 5, supra, were tested in various in vivo assays, as described below. The results of the various assays are provided in TABLE 3, presented at the end of this section. In all of the in vivo assays described, the test compounds, in the form of the aspartate salts, were formulated in an aqueous vehicle (5% mannitol in sterile water; OSMITROL, Baxter Healthcare, Deerfield, Ill.), followed by appropriate dilutions. The formulations were prepared fresh before dosing.
AmB and AME were also tested for comparison. For AmB, the commercially available FUNGIZONE (Bristol-Meyers Squibb Co.) was used. Reported values are based upon the weight of the AmB active ingredient, not on the basis of the weight of the FUNGIZONE powder. AME was formulated in OSMITROL as described for the test compounds.
Maximum non-lethal dose (NLD) data were obtained for selected compounds. A single intravenous dose was administered to each of four mice (Swiss-Webster male mice; Simonsen Laboratories, Gilroy, Calif.) in several groups. The doses selected were based upon the NLDs of compounds of similar structures. After review of findings, higher or lower doses were administered and a NLD was determined. The results are tabulated in TABLE 3, below (NLD Acute Mice). The values for AmB and AME are provided for comparison

| MIC (C. albicans) [µg/mL] | SMILES | NLD acute mice [1] [mg/kg] |
| --- | --- | --- |
| 2 (≈ 1.69 µM) | CC1[C@H](C)OC(=O)C[C@H](O)C[C@H](O)CC[C@@H](O)[C@H](O)C[C@H](O)C[C@]2(O)C[C@H](O)C(C(=O)NN3CCN(C)CC3)C(C[C@@H](OC3O[C@H](C)[C@@H](O)[C@H](NC[C@@]4(O)OC[C@@H](O)[C@@H](O)[C@@H]4O)[C@@H]3O)/C=C/C=C/C=C/C=C/C=C/C=C/C=C/[C@H](C)[C@H]1O)O2 (some centres unmarked) [Compound 100] | – |
| 4 (≈ 3.36 µM) | CC1[C@H](C)OC(=O)C[C@H](O)C[C@H](O)CC[C@@H](O)[C@H](O)C[C@H](O)C[C@]2(O)C[C@H](O)C(C(=O)NCCc3ccccn3)C(C[C@@H](OC3O[C@H](C)[C@@H](O)[C@H](NC[C@@]4(O)OC[C@@H](O)[C@@H](O)[C@@H]4O)[C@@H]3O)/C=C/C=C/C=C/C=C/C=C/C=C/C=C/[C@H](C)[C@H]1O)O2 (some centres unmarked) [Compound 101] | – |
| 2.7 (≈ 2.31 µM) | Cc1cc(NC(=O)C2C3C[C@@H](OC4O[C@H](C)[C@@H](O)[C@H](NC[C@@]5(O)OC[C@@H](O)[C@@H](O)[C@@H]5O)[C@@H]4O)/C=C/C=C/C=C/C=C/C=C/C=C/C=C/[C@H](C)[C@@H](O)C(C)[C@H](C)OC(=O)C[C@H](O)C[C@H](O)CC[C@@H](O)[C@H](O)C[C@H](O)C[C@](O)(C[C@@H]2O)O3)no1 (some centres unmarked) [Compound 102] | – |
| 2 (≈ 1.73 µM) | CC1[C@H](C)OC(=O)C[C@H](O)C[C@H](O)CC[C@@H](O)[C@H](O)C[C@H](O)C[C@]2(O)C[C@H](O)C(C(=O)NCC(O)CO)C(C[C@@H](OC3O[C@H](C)[C@@H](O)[C@H](NC[C@@]4(O)OC[C@@H](O)[C@@H](O)[C@@H]4O)[C@@H]3O)/C=C/C=C/C=C/C=C/C=C/C=C/C=C/[C@H](C)[C@H]1O)O2 (some centres unmarked) [Compound 105] | – |
| 4 (≈ 3.38 µM) | CC1[C@H](C)OC(=O)C[C@H](O)C[C@H](O)CC[C@@H](O)[C@H](O)C[C@H](O)C[C@]2(O)C[C@H](O)C(C(=O)NN3CCN(C)CC3)C(C[C@@H](OC3O[C@H](C)[C@@H](O)[C@H](NC[C@@]4(O)OC[C@@H](O)[C@H](O)[C@@H]4O)[C@@H]3O)/C=C/C=C/C=C/C=C/C=C/C=C/C=C/[C@H](C)[C@H]1O)O2 (some centres unmarked) [Compound 108] | – |
| 2 (≈ 1.68 µM) | CC1[C@H](C)OC(=O)C[C@H](O)C[C@H](O)CC[C@@H](O)[C@H](O)C[C@H](O)C[C@]2(O)C[C@H](O)C(C(=O)NCCc3ccccn3)C(C[C@@H](OC3O[C@H](C)[C@@H](O)[C@H](NC[C@@]4(O)OC[C@@H](O)[C@H](O)[C@@H]4O)[C@@H]3O)/C=C/C=C/C=C/C=C/C=C/C=C/C=C/[C@H](C)[C@H]1O)O2 (some centres unmarked) [Compound 109] | – |
| 8 (≈ 5.91 µM) | CC1[C@H](C)OC(=O)C[C@H](O)C[C@H](O)CC[C@@H](O)[C@H](O)C[C@H](O)C[C@]2(O)C[C@H](O)C(C(=O)NCCc3ccccn3)C(C[C@@H](OC3O[C@H](C)[C@@H](O)[C@H](NC[C@@]4(O)OC[C@@H](O)[C@@H](OC5O[C@H](CO)[C@@H](O)[C@H](O)[C@H]5O)[C@@H]4O)[C@@H]3O)/C=C/C=C/C=C/C=C/C=C/C=C/C=C/[C@H](C)[C@H]1O)O2 (some centres unmarked) [Compound 116] | – |
| 8 (≈ 5.67 µM) | CC1[C@H](C)OC(=O)C[C@H](O)C[C@H](O)CC[C@@H](O)[C@H](O)C[C@H](O)C[C@]2(O)C[C@H](O)C(C(=O)NCC(O)C(O)C(O)C(O)CO)C(C[C@@H](OC3O[C@H](C)[C@@H](O)[C@H](NC[C@@]4(O)OC[C@@H](O)[C@@H](OC5O[C@H](CO)[C@@H](O)[C@H](O)[C@H]5O)[C@@H]4O)[C@@H]3O)/C=C/C=C/C=C/C=C/C=C/C=C/C=C/[C@H](C)[C@H]1O)O2 (some centres unmarked) [Compound 117] | – |
| 8 (≈ 6.05 µM) | CC1[C@H](C)OC(=O)C[C@H](O)C[C@H](O)CC[C@@H](O)[C@H](O)C[C@H](O)C[C@]2(O)C[C@H](O)C(C(=O)NCC(O)CO)C(C[C@@H](OC3O[C@H](C)[C@@H](O)[C@H](NC[C@@]4(O)OC[C@@H](O)[C@@H](OC5O[C@H](CO)[C@@H](O)[C@H](O)[C@H]5O)[C@@H]4O)[C@@H]3O)/C=C/C=C/C=C/C=C/C=C/C=C/C=C/[C@H](C)[C@H]1O)O2 (some centres unmarked) [Compound 119] | – |
| 8 (≈ 5.89 µM) | CC1[C@H](C)OC(=O)C[C@H](O)C[C@H](O)CC[C@@H](O)[C@H](O)C[C@H](O)C[C@]2(O)C[C@H](O)C(C(=O)NCCN3CCCCC3)C(C[C@@H](OC3O[C@H](C)[C@@H](O)[C@H](NC[C@@]4(O)OC[C@@H](O)[C@@H](OC5O[C@H](CO)[C@@H](O)[C@H](O)[C@H]5O)[C@@H]4O)[C@@H]3O)/C=C/C=C/C=C/C=C/C=C/C=C/C=C/[C@H](C)[C@H]1O)O2 (some centres unmarked) [Compound 120] | – |
| 8 (≈ 5.89 µM) | CC1[C@H](C)OC(=O)C[C@H](O)C[C@H](O)CC[C@@H](O)[C@H](O)C[C@H](O)C[C@]2(O)C[C@H](O)C(C(=O)NCCc3cccs3)C(C[C@@H](OC3O[C@H](C)[C@@H](O)[C@H](NC[C@@]4(O)OC[C@@H](O)[C@@H](OC5O[C@H](CO)[C@@H](O)[C@H](O)[C@H]5O)[C@@H]4O)[C@@H]3O)/C=C/C=C/C=C/C=C/C=C/C=C/C=C/[C@H](C)[C@H]1O)O2 (some centres unmarked) [Compound 121] | – |
| 3 (≈ 2.76 µM) | CC1[C@H](C)OC(=O)C[C@H](O)C[C@H](O)CC[C@@H](O)[C@H](O)C[C@H](O)C[C@]2(O)C[C@H](O)C(C(=O)NCC(O)C(O)C(O)C(O)CO)C(C[C@@H](OC3O[C@H](C)[C@@H](O)[C@H](N)[C@@H]3O)/C=C/C=C/C=C/C=C/C=C/C=C/C=C/[C@H](C)[C@H]1O)O2 (some centres unmarked) [Compound 126] | – |

| SMILES | MIC (C. albicans) [µg/mL] | NLD acute mice [1] [mg/kg] |
| --- | --- | --- |
| CC1[C@H](C)OC(=O)C[C@H](O)C[C@H](O)CC[C@@H](O)[C@H](O)C[C@H](O)C[C@]2(O)C[C@H](O)C(C(=O)N[C@H]3C(O)O[C@H](CO)[C@@H](O)[C@@H]3O)C(C[C@@H](OC3O[C@H](C)[C@@H](O)[C@H](N)[C@@H]3O)/C=C/C=C/C=C/C=C/C=C/C=C/C=C/[C@H](C)[C@H]1O)O2 (some centres unmarked) [Compound 123] | 5.3 (≈ 4.88 µM) | 32 |
| CC1[C@H](C)OC(=O)C[C@H](O)C[C@H](O)CC[C@@H](O)[C@H](O)C[C@H](O)C[C@]2(O)C[C@H](O)C(C(=O)N[C@H]3C(O)O[C@H](CO)[C@H](O)[C@@H]3O)C(C[C@@H](OC3O[C@H](C)[C@@H](O)[C@H](N)[C@@H]3O)/C=C/C=C/C=C/C=C/C=C/C=C/C=C/[C@H](C)[C@H]1O)O2 (some centres unmarked) [Compound 124] | 1 (≈ 0.921 µM) | 16 |
| CC1[C@H](C)OC(=O)C[C@H](O)C[C@H](O)CC[C@@H](O)[C@H](O)C[C@H](O)C[C@]2(O)C[C@H](O)C(C(=O)N[C@@H]3C(O)O[C@H](CO)[C@@H](O)[C@@H]3O)C(C[C@@H](OC3O[C@H](C)[C@@H](O)[C@H](N)[C@@H]3O)/C=C/C=C/C=C/C=C/C=C/C=C/C=C/[C@H](C)[C@H]1O)O2 (some centres unmarked) [Compound 125] | 1 (≈ 0.921 µM) | 8 |
| CC1[C@H](C)OC(=O)C[C@H](O)C[C@H](O)CC[C@@H](O)[C@H](O)C[C@H](O)C[C@]2(O)C[C@H](O)C(C(=O)N3CCOCC3)C(C[C@@H](OC3O[C@H](C)[C@@H](O)[C@H](NC[C@@]4(O)OC[C@@H](O)[C@@H](O)[C@@H]4O)[C@@H]3O)/C=C/C=C/C=C/C=C/C=C/C=C/C=C/[C@H](C)[C@H]1O)O2 (some centres unmarked) [Compound 131] | 4 (≈ 3.46 µM) | 5 |
| CC1[C@H](C)OC(=O)C[C@H](O)C[C@H](O)CC[C@@H](O)[C@H](O)C[C@H](O)C[C@]2(O)C[C@H](O)C(C(=O)N3CCOCC3)C(C[C@@H](OC3O[C@H](C)[C@@H](O)[C@H](NC[C@@]4(O)OC[C@@H](O)[C@H](O)[C@@H]4O)[C@@H]3O)/C=C/C=C/C=C/C=C/C=C/C=C/C=C/[C@H](C)[C@H]1O)O2 (some centres unmarked) [Compound 137] | 2 (≈ 1.73 µM) | 5 |
| CC1[C@H](C)OC(=O)C[C@H](O)C[C@H](O)CC[C@@H](O)[C@H](O)C[C@H](O)C[C@]2(O)C[C@H](O)C(C(=O)N3CCN(C)CC3)C(C[C@@H](OC3O[C@H](C)[C@@H](O)[C@H](NC[C@@]4(O)OC[C@@H](O)[C@@H](OC5O[C@H](CO)[C@H](O)[C@H](O)[C@H]5O)[C@@H]4O)[C@@H]3O)/C=C/C=C/C=C/C=C/C=C/C=C/C=C/[C@H](C)[C@H]1O)O2 (some centres unmarked) [Compound 146] | 2 (≈ 1.5 µM) | <7.5 |
| CC1[C@H](C)OC(=O)C[C@H](O)C[C@H](O)CC[C@@H](O)[C@H](O)C[C@H](O)C[C@]2(O)C[C@H](O)C(C(=O)N3CCN(CCO)CC3)C(C[C@@H](OC3O[C@H](C)[C@@H](O)[C@H](NC[C@@]4(O)OC[C@@H](O)[C@@H](OC5O[C@H](CO)[C@H](O)[C@H](O)[C@H]5O)[C@@H]4O)[C@@H]3O)/C=C/C=C/C=C/C=C/C=C/C=C/C=C/[C@H](C)[C@H]1O)O2 (some centres unmarked) [Compound 147] | 2 (≈ 1.47 µM) | <7.5 |
